# In ChEMBL document CHEMBL1130922, “Solid phase synthesis of oligomannopeptoids that mimic the concanavalin A-binding trimannoside” (Bioorg Med Chem Lett, 1998):
# Test: Dissociation constant for binding to concanavalin A (ConA) was determined by fluorescence anisotropy assay
row,Kd [uM l-1],Compound
1,31,CN(C)c1cccc2c(S(=O)(=O)N(CCO[C@H]3O[C@@H](CO)[C@@H](O)[C@H](O)[C@H]3O)CC(N)=O)cccc12
2,12,CN(C)c1cccc2c(S(=O)(=O)N(CCO[C@H]3O[C@@H](CO)[C@@H](O)[C@H](O)[C@H]3O)CC(=O)N(CCO[C@H]3O[C@@H](CO)[C@@H](O)[C@H](O)[C@H]3O)CC(=O)N(CCO[C@H]3O[C@@H](CO)[C@@H](O)[C@H](O)[C@H]3O)CC(=O)N(CCO[C@H]3O[C@@H](CO)[C@@H](O)[C@H](O)[C@H]3O)CC(=O)N(CCO[C@H]3O[C@@H](CO)[C@@H](O)[C@H](O)[C@H]3O)CC(=O)N(CCO[C@H]3O[C@@H](CO)[C@@H](O)[C@H](O)[C@H]3O)CC(N)=O)cccc12
3,14,CN(C)c1cccc2c(S(=O)(=O)N(CCO[C@H]3O[C@@H](CO)[C@@H](O)[C@H](O)[C@H]3O)CC(=O)N(CCO[C@H]3O[C@@H](CO)[C@@H](O)[C@H](O)[C@H]3O)CC(=O)N(CCO[C@H]3O[C@@H](CO)[C@@H](O)[C@H](O)[C@H]3O)CC(=O)N(CCO[C@H]3O[C@@H](CO)[C@@H](O)[C@H](O)[C@H]3O)CC(=O)N(CCO[C@H]3O[C@@H](CO)[C@@H](O)[C@H](O)[C@H]3O)CC(N)=O)cccc12
4,18,CN(C)c1cccc2c(S(=O)(=O)N(CCO[C@H]3O[C@@H](CO)[C@@H](O)[C@H](O)[C@H]3O)CC(=O)N(CCO[C@H]3O[C@@H](CO)[C@@H](O)[C@H](O)[C@H]3O)CC(N)=O)cccc12
5,9,CN(C)c1cccc2c(S(=O)(=O)N(CCO[C@H]3O[C@@H](CO)[C@@H](O)[C@H](O)[C@H]3O)CC(=O)N(CCO[C@H]3O[C@@H](CO)[C@@H](O)[C@H](O)[C@H]3O)CC(=O)N(CCO[C@H]3O[C@@H](CO)[C@@H](O)[C@H](O)[C@H]3O)CC(N)=O)cccc12
6,12,CN(C)c1cccc2c(S(=O)(=O)N(CCO[C@H]3O[C@@H](CO)[C@@H](O)[C@H](O)[C@H]3O)CC(=O)N(CCO[C@H]3O[C@@H](CO)[C@@H](O)[C@H](O)[C@H]3O)CC(=O)N(CCO[C@H]3O[C@@H](CO)[C@@H](O)[C@H](O)[C@H]3O)CC(=O)N(CCO[C@H]3O[C@@H](CO)[C@@H](O)[C@H](O)[C@H]3O)CC(N)=O)cccc12
7,122,CO[C@H]1[C@@H](OCCN(CC(N)=O)S(=O)(=O)c2cccc3c(N(C)C)cccc23)O[C@@H](CO)[C@@H](O)[C@@H]1O
8,2,CN(C)c1cccc2c(S(=O)(=O)N(CCO[C@H]3O[C@@H](CO)[C@@H](O[C@H]4O[C@@H](CO)[C@@H](O[C@H]5O[C@@H](CO)[C@@H](O)[C@H](O)[C@H]5O)[C@H](O)[C@H]4O)[C@H](O)[C@H]3O)CC(N)=O)cccc12
